Activation data for 19 molecules are collected here from patent US10941143B2, “Imidazo [1,5-a]pyridine compounds and their use” (Alterity Therapeutics Limited, priority 2019, dated 2021).

A value given as a limit tells only on which side of the number the result lay.

This assay relates to human neuroblastoma line BE(2)-M17 (M17) cells. The experiment in a line: Measurement of Fe efflux from cells. As to conditions: M17 cells pre-loaded with 57Fe, compound 20 μM for 2 h, percentage increase of Fe in media relative to media without compound, read-out: % Fe Efflux Range. The assay is classed as cell-based. On the procedure:
Method I: Measurement of Fe Efflux from Cells
Compounds of the current invention were assessed for their ability to efflux iron (Fe) from a cell using the following protocol.
The human neuroblastoma line BE(2)-M17 (M17) cell cultures were acquired from Sigma Aldrich (Catalogue #: 95011816). M17 Cells were maintained in Opti-MEM reduced serum media supplemented with 10% fetal bovine serum (Bovogen, SFBSF) and passaged twice weekly. Cells were cultured at 37° C. in the presence of 5% CO2. Culture supplies were sourced from Thermo Fisher unless otherwise stated.
A solution of ^57Fe cold isotope was prepared by dissolving ^57Fe metal (>95% enrichment, Trace Sciences International) in concentrated HCl to give a final concentration of 573 mM. From this master solution, a 10 mM working solution was prepared in sterile water. The working solution was used within two months of preparation.
M17 cells were loaded with iron initially by seeding into 48-well plates at a density of 0.15×10^6 cells per well in 0.5 mL media. After 48 h, old media was discarded. Fresh media was supplemented with 20 μM ^57Fe isotope, from the 10 mM ^57Fe working solution. Cells received 0.2 mL of this ^57Fe enriched media and were returned to the incubator for 20 h. The ability of experimental compounds to efflux iron was determined by the dissolution of compounds in DMSO and diluted in Hanks' Balanced Salt Solution (HBSS) for treatment of M17 cells. After ^57Fe incubation, cells were rinsed twice with HBSS and treated with 0.15 mL trial compound for 2 h at a concentration of 20 μM. All assays included a relevant vehicle (0.4%-0.8% DMSO) as well as a positive control (20 μM). Following the treatment period, 0.1 mL of media was collected from cells and the extracellular ^57Fe content was analysed via inductively coupled mass spectrometry (ICP-MS, Agilent 7700x series instrument).
To perform this protocol the following supplies were purchased from Sigma Aldrich: anhydrous dimethyl sulfoxide (DMSO, Catalogue #: 276855), Hanks' Balanced Salt Solution supplemented with 20 mM HEPES and 4.2 mM Sodium Bicarbonate (HBSS, pH: 7.4, Catalogue #: H1387).
After 2 h the Fe levels in the media were measured and the increase determined as a percentage increase relative to the cell media in the absence of the compound.

For the molecule `Oc1cc(Cl)ccc1-c1nc(-c2cccnc2O)c2ccccn12` [Compound 143], the activation at 20 µM is < 30%.

As for `Oc1c(F)cc(F)cc1-c1nc(-c2cccc(Br)c2O)c2ccccn12` [Compound 33], the activation at 20 µM is < 30%.

Consider `COc1ccccc1-c1nc(-c2ccc(Cl)cc2O)n2ccc(C)cc12` [Compound 100, 5-Chloro-2-(1-(2-methoxyphenyl)-7-methylimidazo[1,5-a]pyridin-3-yl)phenol], for which the activation at 20 µM is < 30%.

In the case of `COc1ccncc1-c1nc(-c2cccc(F)c2O)n2ccccc12` [Compound 157], the activation at 20 µM was < 30%.

On to `COc1ccncc1-c1nc(-c2cc(F)ccc2O)n2ccccc12` [Compound 154], for which the activation at 20 µM was < 30%.

Take `Oc1ccccc1-c1nc(-c2ccc(Cl)cc2)n2ccccc12` [Compound 29]: the activation at 20 µM was < 30%.

As to `Oc1cc(Cl)ccc1-c1nc(-c2ncccc2O)c2ccccn12` [Compound 93], the activation at 20 µM fell in the range of 30 to 100%.

Regarding `CCN(CC)c1ccc(-c2nc(-c3cccnc3O)c3ccccn23)c(O)c1` [Compound 146], the activation at 20 µM was 30 to 100%.

In the case of `COc1ccncc1-c1nc(-c2cccc(C)c2O)n2ccccc12` [Compound 163], the activation at 20 µM was < 30%.

With `Oc1cc(F)ccc1-c1nc(-c2cccc(F)c2O)n2ccccc12` [Compound 50], the activation at 20 µM was 30 to 100%.

For `Oc1cccnc1-c1nc(-c2ccccc2F)n2ccccc12` [Compound 130, 2-(3-(2-Fluorophenyl)imidazo[1,5-a]pyridin-1-yl)pyridin-3-ol], the activation at 20 µM was < 30%.

Take `Oc1ccccc1-c1nc(-c2cccc(F)c2O)n2ncccc12` [Compound 103]: the activation at 20 µM fell in the range of 30 to 100%.

On to `Oc1c(F)cccc1-c1nc(-c2cccc(Br)c2O)c2ccccn12` [Compound 31], for which the activation at 20 µM was < 30%.

For `Oc1ccccc1-c1nc(-c2c(O)cccc2F)n2ccccc12` [Compound 18, 3-Fluoro-2-(1-(2-hydroxyphenyl)imidazo[1,5-a]pyridin-3-yl)phenol], the activation at 20 µM was 30 to 100%.

On to `Oc1ccccc1-c1nc(-c2cccc(Cl)c2O)n2ncccc12` [Compound 104], for which the activation at 20 µM was < 30%.

For `COC(=O)c1ccc(O)c(-c2nc(-c3ccccc3O)c3ccccn23)c1` [Compound 22, Methyl 4-hydroxy-3-(1-(2-hydroxyphenyl)imidazo[1,5-a]pyridin-3-yl)benzoate], the activation at 20 µM was 30 to 100%.

Regarding `COc1ccncc1-c1nc(-c2c(O)cccc2F)n2ccccc12` [Compound 156], the activation at 20 µM is < 30%.

As for `Oc1cccc(Cl)c1-c1nc(-c2cccc(Br)c2O)c2ccccn12` [Compound 35], the activation at 20 µM is < 30%.

Turning to `Cc1ccc(O)c(-c2nc(-c3ncccc3O)c3cccnn23)c1` [Compound 123], the activation at 20 µM was > 150%.
